The source of these data is the NIST ThermoML archive (doi:10.1021/je8004408).

The conditions of series [1]: DTA.
Series [2] can be described thus: Molar enthalpy of transition or fusion. The settings on record: DSC.
Series [3] is described as follows: molar enthalpy of vaporization or sublimation. The settings on record: 298.15 K, Drop Microcalorimetry.

Numbers after ± are expanded uncertainties.

For the molecule `O=C1CCCc2c(O)cccc21` [5-hydroxy-1-tetralone], in series [1] (Crystal), the Normal melting temperature is 206.91 ± 0.39 °C. The “Molar enthalpy of transition or fusion” value in series [2] (Crystal) is 8.05 ± 0.198 kcal/mol. In series [3] (Crystal), the molar enthalpy turned out to be 28.3 ± 0.717 kcal/mol.
With `O=C1CCCc2cc(O)ccc21` [6-hydroxy-1-tetralone], in series [1] (Crystal 1), the Normal melting temperature was determined as 152.76 ± 0.45 °C. Moreover, the Triple point temperature in series [1] (Crystal 2) is listed as 387.46 ± 0.65 K. In addition, the “Molar enthalpy of transition or fusion” value turned out to be 4.54 ± 0.17 kcal/mol in series [2] (Crystal 1) and 3.11 ± 0.598 kcal/mol in series [2] (Crystal 2). The molar enthalpy in series [3] (Crystal 2) is 28.1 ± 0.669 kcal/mol.
